Converted amounts (≈) assume the structure as drawn.

For the data set the following is noted: buffer; pH 7.4; 200.0 µM.
As to `O=C(NCCCCc1ccccc1)c1cccc([N+](=O)[O-])c1`, the kinetic solubility (commonly solubility judged after dilution from a stock solution rather than from solid) worked out at 8.5 µg/mL (≈ 28.5 µM).
The molecule `CN(C(=O)Cn1cnc2sccc2c1=O)C1CCCCC1` came in with a kinetic solubility above 45.8 µg/mL.
Molecule `O=[N+]([O-])c1ccccc1S(=O)(=O)NCCSc1ccccc1` returned a kinetic solubility of 16.5 µg/mL (≈ 48.8 µM).
The molecule `O=C(NCc1ccc(Cl)cc1)c1csc(-c2cccnc2)n1` gave a kinetic solubility of 37.9 µg/mL (≈ 115 µM).
Under `CCOC(=O)C(O)C1CCc2c([nH]c3ccc(C)cc23)C1=O` (stereo not drawn) stands 22.6 µg/mL (≈ 75 µM); under `COCCOC(=O)c1sc2nc[nH]c(=O)c2c1C`, above 40.2 µg/mL; under `N#C/C(=C\c1ccccc1)C(=O)Nc1nncs1`, above 38.4 µg/mL.
Under `ONC(=Nc1ccccc1Cl)c1c(F)cccc1F` stands 19 µg/mL (≈ 67.2 µM).
As for `COc1cccc(CC(=O)Nc2nc(-c3ccc(F)c(F)c3)cs2)c1`, the figure is 0.5 µg/mL (≈ 1.39 µM); as for `O=C(Cc1ccc(Cl)c(Cl)c1)Nc1cccnc1`, above 42.2 µg/mL.
`O=C(O)CC(NC(=O)C1CCCCC1)c1ccc(OC2CCCC2)cc1` (stereo not drawn): the solubility (kinetic) came to 53.4 µg/mL (≈ 149 µM).
`CCOc1ccccc1NC(=O)COc1cccnc1[N+](=O)[O-]` displayed a kinetic solubility of 7.5 µg/mL (≈ 23.6 µM).
Consider `COc1cc(NS(=O)(=O)c2cc(C(=O)NCCc3ccccn3)ccc2OC)cc(OC)c1`, for which the kinetic solubility stood at 66.4 µg/mL (≈ 141 µM).
Under `O=C(NCc1ccccc1Cl)c1cc(=O)[nH]c2ccccc12` stands 7.4 µg/mL (≈ 23.7 µM); under `COc1cccc(C(=O)OCC(=O)NCc2ccc3c(c2)OCO3)c1OC`, above 56 µg/mL.
`COc1ccc(NC(=O)N2C[C@@H]3C[C@@H](C2)c2cccc(=O)n2C3)cc1`: the solubility (kinetic) was above 50.9 µg/mL.
Molecule `Cn1nccc1NC(=O)c1nccnc1C(=O)O` displayed a solubility (kinetic) above 37.1 µg/mL.
Take `CN(C)CC#CCC(O)(c1ccccc1)C1CCCCC1` (stereo not drawn): the kinetic solubility was 42.7 µg/mL (≈ 150 µM).
As for `COc1ccc(NC(=O)C2CCCN(S(C)(=O)=O)C2)c(OC)c1` (stereo not drawn), the figure is above 51.4 µg/mL.
In turn, `Cc1cnc(C(=O)OCC(=O)NC(C)c2ccccc2)cn1` (stereo not drawn) registered a solubility (kinetic) above 44.9 µg/mL.
In turn, `Cc1nn(C)c(Cl)c1CN1CCN(CCC(C)C)C(CCO)C1` (stereo not drawn) registered a solubility (kinetic) above 51.4 µg/mL.
As for `COc1ccc(CSc2nc(C)[nH]c2[N+](=O)[O-])cc1[N+](=O)[O-]`, the figure is 3.2 µg/mL (≈ 9.87 µM); as for `CCOC(=O)c1cc2c(ccn2C)n1CC(=O)N(CC)CC`, above 45.8 µg/mL; as for `Cc1cc(=S)nc(-c2ccccn2)[nH]1`, 28.6 µg/mL (≈ 141 µM).
As for `O=C(c1ccco1)N1CCC(N2CCN(c3ccccc3)CC2)CC1`, the figure is 43.8 µg/mL (≈ 129 µM); as for `COc1cc(C(=O)OCC2CC(c3ccccc3)=NO2)cc(OC)c1OC` (stereo not drawn), 38.2 µg/mL (≈ 103 µM).
Turning to `COc1ccccc1OCCNC(=O)CCS(=O)(=O)c1ccccc1`, the solubility (kinetic) is above 54.5 µg/mL.
Under `Cn1ccsc1=NC(=O)c1ccc(S(=O)(=O)C(F)F)cc1` stands 2.5 µg/mL (≈ 7.52 µM); under `CN(C)CCNC(=S)Nc1ccccc1C(C)(C)C`, above 41.9 µg/mL.
In turn, `O=C(O)c1cc(N2CCOCC2)nc2ccccc12` registered a kinetic solubility of 37.9 µg/mL (≈ 147 µM).
Under `Cc1ccc(N=Cc2c(O)n(C)c(=O)n(C)c2=O)cc1` stands 6.1 µg/mL (≈ 22.3 µM); under `O=C1CC2(CC(c3ccc(Cl)cc3)=NO2)C(=O)N1c1ccccc1` (stereo not drawn), 48.9 µg/mL (≈ 144 µM).
As for `CN(C)CCNS(=O)(=O)c1ccc2c3c(cccc13)C(=O)N2`, the figure is above 47.9 µg/mL; as for `COc1cc(C(=O)N2CCCN(C)CC2)cc(OC)c1C.Cl`, above 49.3 µg/mL; as for `CC1CN(C(=O)/C(=C/c2ccco2)NC(=O)c2ccccc2)CC(C)O1` (stereo not drawn), above 53.2 µg/mL.
`CC(C)CCNC(=O)C1CC(=O)N(CCc2ccccc2)C1` (stereo not drawn) had a kinetic solubility above 45.4 µg/mL.
With `O=C(O)/C=C/C(=O)NCCc1cccc(Cl)c1`, the solubility (kinetic) was above 38.1 µg/mL.
Take `COc1ccccc1NC(=O)COC(=O)c1ccc2ccccc2n1`: the kinetic solubility was 13.1 µg/mL (≈ 38.9 µM).
Under `Cc1cc(C)cc(OCC(=O)O/N=C(\N)Cc2ccc([N+](=O)[O-])cc2)c1` stands 20.4 µg/mL (≈ 57.1 µM).
Under `COc1cc(C(=O)Nc2ccncc2)c([N+](=O)[O-])cc1OC` stands above 45.5 µg/mL; under `CCOc1cc2c(cc1/C=C1/NC(=O)N(CC(=O)OC)C1=O)OCO2`, 2.9 µg/mL (≈ 8.33 µM); under `CN1CN(C)c2ccc([N+](=O)[O-])c3cccc1c23`, 2.1 µg/mL (≈ 8.63 µM).
As for `COCCN(CCOC)C(=O)N1CCOCC1`, the figure is above 36.9 µg/mL; as for `O=C(NC1CCN(c2ncccn2)CC1)c1ccccc1Cl`, above 47.5 µg/mL; as for `Cc1cc(=O)[nH]c(SCC(=O)NCC2CCCCC2)c1C#N`, above 47.9 µg/mL.
Turning to `CCOc1ccc(OCC)c(S(=O)(=O)n2ccnc2C)c1`, the kinetic solubility is 19.7 µg/mL (≈ 63.5 µM).
In turn, `Cc1cc(C)cc(C(=O)Nc2cc3c4c(c2)CC(=O)N4CCC3)c1` yielded a solubility (kinetic) of 1.2 µg/mL (≈ 3.75 µM).
Take `CN(C)c1cc[n+](CC(=O)Nc2ccc(OC(F)F)cc2)cc1.[Cl-]`: the kinetic solubility is above 53.7 µg/mL.
As for `COCCN(C(=S)Nc1ccc(C)cc1)C(C)c1ccco1` (stereo not drawn), the figure is 3.4 µg/mL (≈ 10.7 µM); as for `CC(O)CNC(=O)Cc1cc(=O)[nH]c(=O)[nH]1` (stereo not drawn), above 34.1 µg/mL.
Under `COc1ccc(NC(=O)COC(=O)CCNC(=O)c2ccco2)cc1Cl` stands above 57.1 µg/mL; under `CC(=NCCc1ccccc1)C1=C(O)C(c2ccccc2)OC1=O` (stereo not drawn), 31.7 µg/mL (≈ 98.6 µM).
Under `COC(=O)c1sccc1NC(=O)c1cccc(F)c1` stands below 0.6 µg/mL; under `Cc1cc(C)cc(NC(=O)[C@@H](NC(=O)c2ccco2)C(C)C)c1`, 2.8 µg/mL (≈ 8.91 µM).
Consider `O=S(=O)(NC1CCN(Cc2ccccc2)CC1)c1ccc(Cl)cc1`, for which the kinetic solubility was above 54.7 µg/mL.
In turn, `COc1ccc(N=Cc2c(O)n(C)c(=O)[nH]c2=O)cc1` gave a solubility (kinetic) of 2.2 µg/mL (≈ 7.99 µM).
As for `CCOC(=O)C1CCN(S(=O)(=O)c2cn(C)cn2)CC1`, the figure is above 45.2 µg/mL; as for `Cc1cc(=O)n2c(n1)NC(=NCc1ccccc1)NC2c1ccccc1` (stereo not drawn), above 51.8 µg/mL.
As for `O=C(O)C1CCN(C(=O)CSc2nnc3ccccn23)CC1`, the figure is above 48.1 µg/mL; as for `N#Cc1ccc2nc3c(nc2c1)CCCC3`, 30.2 µg/mL (≈ 144 µM).
Under `CN(CCC#N)C(=S)Nc1ccc(F)cc1` stands 32.8 µg/mL (≈ 138 µM).
Take `O=C1NC2(CCCCCC2)C(=O)N1Cc1ccccc1Cl`: the kinetic solubility came to 6.8 µg/mL (≈ 22.2 µM).
As for `CCCN1CCC(NC(=O)C2CCCCC2C(=O)O)CC1` (stereo not drawn), the figure is above 44.5 µg/mL; as for `COC(=O)c1ccc(S(=O)(=O)NCc2ccccn2)n1C`, 39.6 µg/mL (≈ 128 µM).
As for `COc1cc(NC(=S)N(C)CCC#N)c(OC)cc1Cl`, the figure is 38.9 µg/mL (≈ 124 µM).
For the molecule `CC(C)C(=O)NC(c1ccc(Cl)cc1Cl)c1ccc2cccnc2c1O` (stereo not drawn), the kinetic solubility is 2.8 µg/mL (≈ 7.19 µM).
Under `O=C1CN(C(=O)NCC(=O)N2CCCC2)c2ccccc2N1` stands above 45.3 µg/mL; under `Cc1csc(NC(=O)c2ccc(S(=O)(=O)N3CCN(C)CC3)cc2)n1`, 54.5 µg/mL (≈ 143 µM); under `Cc1cccc(CSc2nc3ccccc3c(=O)n2C)c1`, 1.2 µg/mL (≈ 4.05 µM).
As for `Cc1ccc(-c2nc(Cl)nc3ccccc23)cc1`, the figure is 1.7 µg/mL (≈ 6.67 µM); as for `Cc1ccc(C)c(NC(=S)NCc2ccccc2)c1`, 40.2 µg/mL (≈ 149 µM); as for `O=C(NCc1ncc(C(F)(F)F)cc1Cl)Nc1ccccc1`, 3.1 µg/mL (≈ 9.4 µM).
Under `Cc1c(C(=O)Nc2nccs2)oc2ccc(Br)cc12` stands 2 µg/mL (≈ 5.93 µM); under `O=C(CCCCC(=O)Nc1ccccc1)Nc1ccccc1`, 3.1 µg/mL (≈ 10.5 µM).
`Cc1ccc(CNC(=O)CCNC(=O)c2ccc([N+](=O)[O-])cc2)cc1` showed a kinetic solubility of 41.2 µg/mL (≈ 121 µM). This solubility kinetic is about 13-fold higher than that of the molecule before.
As for `COc1ccc(C(=O)NC(C)CCc2ccccc2)c(OC)c1` (stereo not drawn), the figure is 41.5 µg/mL (≈ 132 µM).
In turn, `Cc1ccccc1NC(=O)c1cc2ccccc2o1` displayed a kinetic solubility of 33.7 µg/mL (≈ 134 µM).
Under `COc1cccc(C(=O)NCC(=O)N/N=C/c2cccnc2)c1` stands above 46.8 µg/mL.
In turn, `COc1ccc(C)cc1N(CC(=O)N1CCCC1)S(C)(=O)=O` registered a solubility (kinetic) above 49 µg/mL.
Take `Cc1ccccc1NC(=O)NC(C)(C)CC(C)(C)C`: the solubility (kinetic) worked out at 1.3 µg/mL (≈ 4.95 µM).
Turning to `C=CCN1CCN(C(=O)c2c(-c3ccccc3)noc2C)CC1`, the solubility (kinetic) was above 46.7 µg/mL.
In turn, `CN(C)c1cccc(NC(=O)NC2(C)CCS(=O)(=O)C2)c1` (stereo not drawn) registered a solubility (kinetic) above 46.7 µg/mL.
Under `CC(=O)c1c(C)[nH]c(C(=O)O)c1C` stands above 27.2 µg/mL; under `Cc1cc(C)cc(Nc2ccc(C(=O)O)cc2[N+](=O)[O-])c1`, above 42.9 µg/mL.
Under `COc1ccc(NC(=O)CS(=O)(=O)c2ccc(F)cc2)cc1` stands 46.9 µg/mL (≈ 145 µM).
As for `CC(=O)Nc1ccc(C(F)(F)F)cc1Cl`, the figure is 23.1 µg/mL (≈ 97.2 µM); as for `O=C(Cn1cc(C(F)(F)F)cc(Cl)c1=O)NCc1ccccc1`, 7.8 µg/mL (≈ 22.6 µM).
Regarding `O=C(C1CCN(S(=O)(=O)c2ccc(Cl)cc2)CC1)N1CCCC1`, the kinetic solubility came out at 35.9 µg/mL (≈ 101 µM).
As for `COc1ccccc1NC(=O)Nc1ccncc1`, the figure is 16.5 µg/mL (≈ 67.8 µM); as for `CCC(=O)Nc1ccc(NC(=O)c2cccc3ccccc23)cc1`, below 0.3 µg/mL; as for `Cc1ccc(C(=O)O/N=C/c2ccc(N(C)C)cc2)cc1`, 2.4 µg/mL (≈ 8.5 µM).
As to `CCOc1ccc(CSC(=N)N)cc1Cl.Cl`, the kinetic solubility was above 42.2 µg/mL.
As for `Cc1ccc(S(=O)(=O)NC(=O)c2cccc(N(C)C)c2)cc1`, the figure is above 47.8 µg/mL.
Under `Cc1cccc(N2CCN(Cc3ccc([N+](=O)[O-])o3)CC2)c1C` stands 6.1 µg/mL (≈ 19.3 µM); under `CCCCc1nnc(NC(=O)C2=COCCO2)s1`, above 40.4 µg/mL.
Under `O=C(/C=C/c1ccccc1)Nc1cccnc1Oc1ccccc1F` stands 2.7 µg/mL (≈ 8.08 µM); under `CC(C)Oc1ccc(/C=C/C(=O)NCC2COc3ccccc3O2)cc1` (stereo not drawn), 2.8 µg/mL (≈ 7.92 µM).
Turning to `O=S(=O)(c1ccccc1)c1nc(-c2ccccc2Cl)oc1NCCCN1CCOCC1`, the kinetic solubility stood at 3.6 µg/mL (≈ 7.79 µM). This solubility kinetic and that of the molecule before are within 1.5-fold of each other.
Turning to `CC1CN(C)CCC1OC(=O)c1ccccc1.Cl` (stereo not drawn), the solubility (kinetic) was above 40.5 µg/mL.
In the case of `O=C(CSc1nccc(=O)[nH]1)Nc1ccc2ccccc2c1`, the solubility (kinetic) is above 46.7 µg/mL.
Under `CC(=O)Nc1ccccc1C(=O)C(=O)Nc1cccc(Br)c1` stands 29.1 µg/mL (≈ 80.6 µM); under `CC(=O)c1c(Nc2cccc(F)c2)oc(C)cc1=O`, 31.3 µg/mL (≈ 120 µM).
Under `COc1ccc(N2CCN(C(=O)Cc3ccc(Cl)cc3)CC2)cc1` stands 50.1 µg/mL (≈ 145 µM).

The values are drawn from PubChem BioAssay AID1996.
